Results: paper PMC11432405, “Development of Novel Alaninamide Derivatives with Anticonvulsant Activity and Favorable Safety Profiles in Animal Models” (International Journal of Molecular Sciences, 2024)
Read-outs that look alike come from different tables or passages of the source.

Assays:
[1] = tested on: maximal electroshock (MES) seizures; details: TD50 rotarod / ED50 MES; cited from earlier work
motor coordination [2] = details: cited from earlier work
6 Hz (32 mA) seizures [3] = details: cited from earlier work; for PI (TD50/ED50) 6 Hz: TD50 rotarod / ED50 6 Hz (32 mA)
6 Hz (44 mA) seizures = details: TD50 rotarod / ED50 6 Hz (44 mA); cited from earlier work
[4] = tested on: maximal electroshock (MES) seizures; test: maximal electroshock seizure (MES) test; assay type: in vivo, mice; details: for PI (TD50/ED50) MES: TD50 rotarod / ED50 MES; for protection (efficacy) in the MES screening / ED50 MES / MES test: number of mice protected / number of mice tested / responders at 100 mg/kg / ED50: mice i.p.; for ED50 MES / ED50: TPE 0.5 h, 95% confidence interval in parentheses; for responders at 100 mg/kg / ED50: Mus musculus, ip
Text: Epilepsy is a multifaceted disorder with often unclear etiology, making it challenging to pinpoint a specific receptor or transporter as the definitive target. Consequently, the discovery of ASMs deviates from the traditional drug development pathway, which typically involves designing a new molecule, docking it with a specific biological target, and performing chemical synthesis, followed by in vitro assays. Instead, numerous animal seizure models, which mirror various types of human epileptic seizures, are initially employed in the process of new ASM discovery. This approach has been instrumental in the identification and introduction into clinical practice of all currently used ASMs and continues to be a cornerstone in the preclinical development of new anticonvulsants. The primary justification for prioritizing in vivo screening over in vitro binding and functional studies is the complex and often not fully elucidated mechanisms of action of known ASMs. This approach also facilitates the discovery of compounds with novel, previously undefined pharmacodynamic properties. In light of this, we evaluated all compounds obtained in the current studies using the MES test, which remains one of the most valuable preclinical screening models for tonic-clonic seizures, as well as partial convulsions with or without secondary generalization in humans. This test allows for a comprehensive assessment of the anticonvulsant efficacy of new ASM candidates and is considered highly relevant for predicting their therapeutic efficacy in human epilepsy. The MES test was carried out in mice following the intraperitoneal (i.p.) administration of a screening dose of 100 mg/kg in a group consisting of four animals. The efficacy of the compounds synthesized was evaluated at 0.5 h pretreatment time.
Fresh solutions were prepared daily for each experimentation session.
Each group consisted of six animals.

human recombinant MAO-B = target: T1, human recombinant MAO-B (Homo sapiens, UniProt P27338); test: fluorometric monoamine oxidase B inhibition assay; assay type: biochemical; details: for % inhibition MAO-B (1 µM): mean of two independent experiments; for inhibition at 1 µM: read-out: % inhibition MAO-B (1 µM), mean of two independent experiments
T1 construct: purchased Sigma Aldrich
T1 sequence (P27338 1-520): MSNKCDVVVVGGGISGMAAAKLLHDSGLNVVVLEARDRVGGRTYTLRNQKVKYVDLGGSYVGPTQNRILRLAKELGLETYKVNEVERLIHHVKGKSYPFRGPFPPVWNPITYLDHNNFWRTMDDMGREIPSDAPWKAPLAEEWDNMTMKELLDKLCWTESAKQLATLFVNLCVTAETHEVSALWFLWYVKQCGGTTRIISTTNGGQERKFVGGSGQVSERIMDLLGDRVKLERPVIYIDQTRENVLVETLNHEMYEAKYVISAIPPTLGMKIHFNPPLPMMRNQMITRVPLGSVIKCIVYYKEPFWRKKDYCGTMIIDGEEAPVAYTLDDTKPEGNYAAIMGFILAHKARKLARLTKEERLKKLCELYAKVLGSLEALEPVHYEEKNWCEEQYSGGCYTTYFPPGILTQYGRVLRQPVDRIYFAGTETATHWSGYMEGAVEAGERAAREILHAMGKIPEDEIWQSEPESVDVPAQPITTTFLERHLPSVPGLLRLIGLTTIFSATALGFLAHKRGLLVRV

motor coordination [5] = test: rotarod test (acute neurological toxicity, motor coordination); assay type: in vivo; details: mice i.p., 0.5 h
Description: (§2) The protective indexes (PIs) were then calculated as the ratio of TD50 to ED50 (PI = TD50/ED50), providing an assessment of the therapeutic window for each compound.

6 Hz (32 mA) seizures [6] = test: 6 Hz (32 mA) psychomotor seizure model; details: for PI (TD50/ED50) 6 Hz: TD50 rotarod / ED50 6 Hz (32 mA); for protection (efficacy) in the 6 Hz (32 mA) screening / ED50 6 Hz (32 mA) / 6 Hz (32 mA) test: number of mice protected / number of mice tested: mice i.p.; for protection (efficacy) in the 6 Hz (32 mA) screening: 100 mg/kg, four mice; for protection (efficacy) in the 6 Hz (32 mA) screening / ED50 / responders at 100 mg/kg: 0.5 h; for ED50 6 Hz (32 mA): TPE 0.5 h, 95% confidence interval in parentheses; for 6 Hz (32 mA) test: number of mice protected / number of mice tested: dose of 100 mg/kg, pretreatment time 0.5 h; for ED50 / responders at 100 mg/kg: Mus musculus, ip; for ED50: read-out: ED50 6 Hz (32 mA), mice i.p., TPE 0.5 h, 95% confidence interval in parentheses; for responders at 100 mg/kg: read-out: protection (efficacy) in the 6 Hz (32 mA) screening;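 for all read-outs here: adult male albino Swiss CD-1 mice, each used once, with compounds suspended in 1% Tween 80 in water as vehicle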
SH-SY5Y cells = test: neurocytotoxicity MTT viability assay; assay type: cell-based, human; details: 1–50 µM, 24 h
Description: (§1) To evaluate selected compounds’ hepatocytotoxicity and neurocytotoxicity, a human hepatocellular carcinoma cell line, HepG2 (ATCC® HB-8065™), and a human neuroblastoma cell line, SH-SY5Y (ATCC®, CRL-2266™), were used. Both cell lines were cultured in standard culture conditions (5% CO2, 37 °C, 95% humidity) using Dulbecco′s Modified Eagle′s—Medium (DMEM; Gibco, Thermo Scientific, Waltham, MA, USA) supplemented with 10% (vol/vol) fetal bovine serum (FBS; Gibco, Thermo Scientific, Waltham, MA, USA) and an antibiotic mixture (Penicillin, Streptomycin, Amphotericin B; Gibco, Thermo Scientific, Waltham, MA, USA). Cells were cultured with compounds 5, […], or 39 (1–50 µM) for 24 h and then an MTT (3-(4,5-dimethylthiazol-2-yl)-2,5diphenyltetrazolium bromide, Sigma-Aldrich, St. Louis, MO, USA) viability assay was performed. The formazan crystals were dissolved in DMSO (Sigma-Aldrich, St. Louis, MO, USA), and the absorbance at 570 nm was measured using a microplate reader (SpectraMax® iD3, Molecular Devices, San Jose, CA, USA). The experiment was performed three times in duplicate. Each bar represents the mean (±SEM) percentage of viable cells in comparison to the control (defined as 100% and represented by untreated cells).
Figure 3 The viability of SH-SY5Y cells incubated in the presence of compounds 5, 17, and 39. […] Cell viability was measured using an MTT assay. […]

HepG2 cells = test: hepatocytotoxicity MTT viability assay; assay type: cell-based, human; details: 24 h
Description: as §1
Figure 2 The viability of HepG2 cells incubated in the presence of 5, 17, and 39. HepG2 cells were exposed to growing concentrations (1–50 µM) of tested compounds for 24 h. Cell viability was measured using an MTT assay. Bars represent mean percent of cell viability normalized to non-treated cells (100%) ± SEM. The doxorubicin was tested as a positive control.

[7] = rotarod test (acute neurological toxicity, motor coordination); assay type: in vivo; details: male, CD-1 (albino Swiss), mouse, in vivo, ip, mice i.p.
Description: as §2

[8] = dose of 100 mg/kg, pretreatment time 0.5 h
[9] = dose of 100 mg/kg, pretreatment time 0.5 h, read-out: MES test: number of mice protected / number of mice tested (converted)

Structure (SMILES): C[C@H](C(=O)NCc1ccccc1)N1C(=O)CCC1=O [(R)-AS-1, (R)-N-Benzyl-2-(2,5-Dioxopyrrolidin-1-Yl)Propanamide]
- PI (TD50/ED50) MES [1]: > 7.5
- TD50 (rotarod test) (motor coordination [2]; mouse, in vivo, ip): >500 mg/kg
- PI (TD50/ED50) 6 Hz (6 Hz (32 mA) seizures [3]): > 32.0
- PI (TD50/ED50) 6 Hz (44 mA) (6 Hz (44 mA) seizures): >12.0

Structure (SMILES): CC(C(=O)NCc1ccc(OCc2cccc(F)c2)cc1)N1C(=O)CCC1=O (centres unmarked) [Compound 7, 2-(2,5-dioxopyrrolidin-1-yl)-N-(4-((3-fluorobenzyl)oxy)benzyl)propanamide]
- PI (TD50/ED50) MES [4]: > 3.8
- protection (efficacy) in the MES screening ([4]; 100 mg/kg, 0.5 h, four mice): ≤ 25%
- ED50 MES [4]: 78.30 (65.82–93.13) mg/kg
- MES test: number of mice protected / number of mice tested [4, 8]: 1/4
- % inhibition MAO-B (1 µM) (human recombinant MAO-B): 0%
- TD50 (rotarod test) (motor coordination [5]): >300 mg/kg
- PI (TD50/ED50) 6 Hz (6 Hz (32 mA) seizures [6]): > 4.2
- protection (efficacy) in the 6 Hz (32 mA) screening (6 Hz (32 mA) seizures [6]): 100%
- ED50 6 Hz (32 mA) (6 Hz (32 mA) seizures [6]): 71.73 (66.6–77.23) mg/kg
- 6 Hz (32 mA) test: number of mice protected / number of mice tested (6 Hz (32 mA) seizures [6]): 4/4

Structure (SMILES): CC(C(=O)NCc1ccc(OCc2ccccc2Cl)cc1)N1C(=O)CCC1=O (centres unmarked) [Compound 9, N-(4-((2-chlorobenzyl)oxy)benzyl)-2-(2,5-dioxopyrrolidin-1-yl)propanamide]
- PI (TD50/ED50) MES [4]: > 6.3
- protection (efficacy) in the MES screening ([4]; 100 mg/kg, 0.5 h, four mice): 100%
- MES test: number of mice protected / number of mice tested [4, 8]: 4/4
- % inhibition MAO-B (1 µM) (human recombinant MAO-B): 0%
- TD50 (rotarod test) (motor coordination [5]): >300 mg/kg
- PI (TD50/ED50) 6 Hz (6 Hz (32 mA) seizures [6]): > 5.2
- protection (efficacy) in the 6 Hz (32 mA) screening (6 Hz (32 mA) seizures [6]): 75%
- ED50 6 Hz (32 mA) (6 Hz (32 mA) seizures [6]): 57.69 (33.98–97.94) mg/kg
- 6 Hz (32 mA) test: number of mice protected / number of mice tested (6 Hz (32 mA) seizures [6]): 3/4

Structure (SMILES): CC(C(=O)NCc1ccc(OCc2cccc(Cl)c2)cc1)N1C(=O)CCC1=O (centres unmarked) [Compound 10, N-(4-((3-chlorobenzyl)oxy)benzyl)-2-(2,5-dioxopyrrolidin-1-yl)propanamide]
- PI (TD50/ED50) MES [4]: > 5.9
- protection (efficacy) in the MES screening ([4]; 100 mg/kg, 0.5 h, four mice): 100%
- ED50 MES [4]: 50.87 (45.29–57.13) mg/kg
- MES test: number of mice protected / number of mice tested [4, 8]: 4/4
- % inhibition MAO-B (1 µM) (human recombinant MAO-B): 0%
- TD50 (rotarod test) (motor coordination [5]): >300 mg/kg
- PI (TD50/ED50) 6 Hz (6 Hz (32 mA) seizures [6]): > 5.0
- protection (efficacy) in the 6 Hz (32 mA) screening (6 Hz (32 mA) seizures [6]): 75%
- ED50 6 Hz (32 mA) (6 Hz (32 mA) seizures [6]): 59.31 (45.54–73.08) mg/kg
- 6 Hz (32 mA) test: number of mice protected / number of mice tested (6 Hz (32 mA) seizures [6]): 3/4

Structure (SMILES): CC(C(=O)NCc1ccc(OCc2ccc(OC(F)(F)F)cc2)cc1)N1C(=O)CCC1=O (centres unmarked) [Compound 17, 2-(2,5-dioxopyrrolidin-1-yl)-N-(4-((4-(trifluoromethoxy)benzyl)oxy)benzyl)propanamide]
- responders at 100 mg/kg ([4]; 100 mg/kg, 0.5 h, four mice, read-out: protection (efficacy) in the MES screening): 100%
- ED50 [4]: 21 mg/kg
- responders at 100 mg/kg [4, 9]: 100%
- toxic effect on SH-SY5Y cell viability (MTT) (SH-SY5Y cells): do not exhibit toxic effects
- inhibition at 1 µM (human recombinant MAO-B): 0%
- toxic effect on HepG2 cell viability (MTT) (HepG2 cells; 1–50 µM): do not exhibit toxic effects
- TD50 at 0.5 h [7]: > 300 mg/kg
- melting point: 104.1 to 104.8 °C
- ED50 (6 Hz (32 mA) seizures [6]): 77 mg/kg
- responders at 100 mg/kg (6 Hz (32 mA) seizures [6]): 75%

Structure (SMILES): CC(C(=O)NCc1ccc(OCc2ccc(OC(F)(F)F)cc2)cc1)N1CCCC1=O (centres unmarked) [Compound 39, 2-(2-oxopyrrolidin-1-yl)-N-(4-((4-(trifluoromethoxy)benzyl)oxy)benzyl)propanamide]
- ED50 [4]: 36.2 mg/kg
- responders at 100 mg/kg [4, 9]: 100%
- PI (TD50/ED50) MES [4]: < 8.3
- inhibition at 1 µM (human recombinant MAO-B): 0%
- cell viability at higher concentration (MTT) (HepG2 cells; 50 µM, cell line not specified in the sentence (Figures 2 and 3)): statistically significant decrease in cell viability
- TD50 at 0.5 h [7]: < 300 mg/kg
- melting point: 103.4 to 103.9 °C
- ED50 (6 Hz (32 mA) seizures [6]): 37.3 mg/kg
- responders at 100 mg/kg (6 Hz (32 mA) seizures [6]): 100%
- PI (TD50/ED50) 6 Hz (6 Hz (32 mA) seizures [6]): < 8.0

Structure (SMILES): CC[C@@H](C(N)=O)N1CCCC1=O [LEV, levetiracetam]
- TD50 (rotarod test) (motor coordination [2]; mice i.p., Table 2): >500 mg/kg
- TD50 (rotarod test) (motor coordination [2]; mice i.p., Table 3): >500 mg/kg

Structure (SMILES): CCCC(CCC)C(=O)O [VPA, valproic acid]
- PI (TD50/ED50) MES [1]: 1.7
- PI (TD50/ED50) 6 Hz (6 Hz (32 mA) seizures [3]): 3.3
- ED50 6 Hz (32 mA) (6 Hz (32 mA) seizures [3]; mice i.p., TPE 0.5 h (LEV 1.0 h)): 130.6 (117.6–145.2) mg/kg
- PI (TD50/ED50) 6 Hz (44 mA) (6 Hz (44 mA) seizures): 2.3
